Assays:
SARS-CoV-2 3CL^pro = SARS-CoV-2 3CL^pro (Severe acute respiratory syndrome coronavirus 2, UniProt P0DTD1); test: cell-based; conditions: HEK293 cells with stable 3CL^pro-flag expression, 72 h treatment, densitometry of Western blot; read-out: Dmax (maximum degradation in percentage)
[1] = Cytotoxicity assay (Cell Counting Kit-8); conditions: human
HEK293 cells = test: Cytotoxicity assay (Cell Counting Kit-8); conditions: read-out: CC50 (50% cytotoxicity concentration); HEK293, 72 h, CCK8
[2] = HEK293 cells, CC50 (50% cytotoxicity concentration), HEK293, 72 h, CCK8

| SMILES | Dmax (SARS-CoV-2 3CL^pro) [%] | CC50 at 3 days [1, 2] [µM] | CC50 (HEK293 cells) [µM] | CC50 at 3 days [1] [µM] |
| --- | --- | --- | --- | --- |
| CC(C)[C@H](NC(=O)[C@@H](NC(=O)OC(C)(C)C)C1CCCCC1)C(=O)OCCOCCNc1cccc2c1C(=O)N(C1CCC(=O)NC1=O)C2=O (some centres unmarked) [Compound 15] | 89.3 | 145 | – | – |
| CC(C)C[C@H](NC(=O)OC(C)(C)C)C(=O)N[C@@H](Cc1ccccc1)C(=O)OCCOCCOCCNc1cccc2c1C(=O)N(C1CCC(=O)NC1=O)C2=O (some centres unmarked) [Compound 16] | 75 | ~25 | 25.8 | – |
| CC(C)(C)OC(=O)N[C@H](C(=O)N[C@@H](Cc1ccccc1)C(=O)NCCCCNC(=O)CCC(=O)Nc1cccc2c1CN(C1CCC(=O)NC1=O)C2=O)C1CCCCC1 (some centres unmarked) [Compound 17] | – | – | – | 219 |
| CC(C)(C)OC(=O)N[C@H](C(=O)N[C@@H](Cc1ccccc1)C(=O)NCCCCCCNC(=O)CCC(=O)Nc1cccc2c1CN(C1CCC(=O)NC1=O)C2=O)C1CCCCC1 (some centres unmarked) [Compound 18] | – | – | – | 92.2 |
| CC(C)C[C@H](NC(=O)[C@H](Cc1ccccc1)NC(=O)OC(C)(C)C)C(=O)NCCCCCCNC(=O)CCC(=O)Nc1cccc2c1CN(C1CCC(=O)NC1=O)C2=O (some centres unmarked) [Compound 19] | – | – | – | 241 |

From PMC12027948, “Development of Peptidomimetic PROTACs as Potential Degraders of 3-Chymotrypsin-like Protease of SARS-CoV-2” (International Journal of Molecular Sciences, 2025)
